Molecules are shown by their SMILES.

In the first assay the target is b-Raf (V600E) (Homo sapiens (Human), UniProt P15056, V600E). To be noted: read-out: b-Raf IC-50; AlphaScreen, 60 min pre-incubation, 3 hours reaction. (Bead proximity is the source of the signal in Alpha formats.)
Sequence of b-Raf (V600E) (P15056 whole entry V600E): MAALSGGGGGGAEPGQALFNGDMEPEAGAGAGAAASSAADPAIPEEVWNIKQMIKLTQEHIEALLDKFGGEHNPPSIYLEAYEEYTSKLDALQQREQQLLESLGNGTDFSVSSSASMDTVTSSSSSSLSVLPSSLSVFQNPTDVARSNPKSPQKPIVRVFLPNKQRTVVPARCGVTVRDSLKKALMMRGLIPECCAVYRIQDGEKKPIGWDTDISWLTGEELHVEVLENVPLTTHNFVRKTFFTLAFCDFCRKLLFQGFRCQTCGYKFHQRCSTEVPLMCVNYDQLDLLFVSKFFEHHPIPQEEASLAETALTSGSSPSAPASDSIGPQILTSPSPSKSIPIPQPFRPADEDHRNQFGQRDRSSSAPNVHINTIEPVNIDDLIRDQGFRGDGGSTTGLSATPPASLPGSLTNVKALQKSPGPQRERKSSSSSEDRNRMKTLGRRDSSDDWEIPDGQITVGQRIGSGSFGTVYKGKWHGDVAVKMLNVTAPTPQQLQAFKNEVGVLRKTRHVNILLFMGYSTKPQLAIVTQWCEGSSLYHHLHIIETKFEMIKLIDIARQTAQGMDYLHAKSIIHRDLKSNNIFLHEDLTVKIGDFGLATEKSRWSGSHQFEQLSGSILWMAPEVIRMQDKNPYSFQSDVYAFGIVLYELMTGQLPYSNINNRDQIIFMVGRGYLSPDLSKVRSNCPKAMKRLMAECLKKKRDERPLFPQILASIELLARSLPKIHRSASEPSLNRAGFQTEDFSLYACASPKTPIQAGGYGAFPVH
Consider `Cc1ccc(NC(=O)c2cc(CN(C)C)cc(C(F)(F)F)c2)cc1-c1cc(N2CCOCC2)c(=O)n(C)n1` [Example 661, 3-((dimethylamino)methyl)-N-(4-methyl-3-(1-methyl-5-morpholino-6-oxo-1,6-dihydropyridazin-3-yl)phenyl)-5-(trifluoromethyl)benzamide], for which the IC50 was 4.3 nM.

As for `Cc1ccc(NC(=O)c2cnnc(C(C)(C)C#N)c2)cc1-c1cc(N2CCOCC2)c(=O)n(C)n1` [Example 646, 6-(2-cyanopropan-2-yl)-N-(4-methyl-3-(1-methyl-5-morpholino-6-oxo-1,6-dihydropyridazin-3-yl)phenyl)pyridazine-4-carboxamide], the IC50 turned out to be 8.4 nM.

On to `Cc1ccc(NC(=O)c2cc(CN(C)C)cc(C(F)(F)F)c2)cc1-c1cc(N2CCOCC2)n(C)c(=O)c1` [Example 497, 3-((dimethylamino)methyl)-N-(4-methyl-3-(1-methyl-6-morpholino-2-oxo-1,2-dihydropyridin-4-yl)phenyl)-5-(trifluoromethyl)benzamide], for which the IC50 was 2.8 nM.

Consider `Cc1ccc(NC(=O)c2ccnc(C(C)(C)F)c2)cc1-c1cc(N2CCOC(C)(C)C2)c(=O)n(C)n1` [Example 665, N-(3-(5-(2,2-dimethylmorpholino)-1-methyl-6-oxo-1,6-dihydropyridazin-3-yl)-4-methylphenyl)-2-(2-fluoropropan-2-yl)isonicotinamide], for which the IC50 is 6.7 nM.

For the molecule `Cc1ncc(NC(=O)c2cccc(C(F)(F)F)c2)cc1-c1cc(N2CCOCC2)nc(NC(C)(C)CO)n1` [Example 752, N-(5-(2-((1-hydroxy-2-methylpropan-2-yl)amino)-6-morpholinopyrimidin-4-yl)-6-methylpyridin-3-yl)-3-(trifluoromethyl)benzamide], the IC50 worked out at 1.8 nM.

Regarding `Cc1ncc(NC(=O)c2ccnc(C(F)F)c2)cc1-c1cc(N2CCOCC2)c(=O)n(C)n1` [Example 680, 2-(difluoromethyl)-N-(6-methyl-5-(1-methyl-5-morpholino-6-oxo-1,6-dihydropyridazin-3-yl)pyridin-3-yl)isonicotinamide], the IC50 was 14.6 nM.

With `Cc1ccc(NC(=O)c2ccnc(C(C)(C)F)c2)cc1-c1cc(N2C3CCC2COC3)c(=O)n(C)n1` [Example 668, N-(3-(5-(3-oxa-8-azabicyclo[3.2.1]octan-8-yl)-1-methyl-6-oxo-1,6-dihydropyridazin-3-yl)-4-methylphenyl)-2-(2-fluoropropan-2-yl)isonicotinamide], the IC50 came out at 4.1 nM.

For the molecule `CCNc1nc(-c2cc(NC(=O)c3cnnc(C(C)(C)C#N)c3)ccc2C)cc(N2CCOCC2)n1` [Example 709, 6-(2-cyanopropan-2-yl)-N-(3-(2-(ethylamino)-6-morpholinopyrimidin-4-yl)-4-methylphenyl)pyridazine-4-carboxamide], the IC50 worked out at 3.4 nM.

Regarding `Cc1ccc(NC(=O)c2cnnc(C(C)(C)C#N)c2)cc1-c1cc(N2CCOCC2)n(C)c(=O)c1` [Example 489, 6-(2-cyanopropan-2-yl)-N-(4-methyl-3-(1-methyl-6-morpholino-2-oxo-1,2-dihydropyridin-4-yl)phenyl)pyridazine-4-carboxamide], the IC50 was found to be 2.4 nM.

The assay is the same for the next values; noted with them: read-out: b-Raf IC-50; AlphaScreen, 60 min pre-incubation, reaction 3 hours at room temperature.
With `Cc1ccc(NC(=O)c2cnnc(C(F)(F)F)c2)cc1-c1cc(N2CCOCC2)nc(N2CC(O)C2)c1` [Example 1070, N-(3-(2-(3-hydroxyazetidin-1-yl)-6-morpholinopyridin-4-yl)-4-methylphenyl)-6-(trifluoromethyl)pyridazine-4-carboxamide], the IC50 stood at 2.41 nM.

`Cc1ccc(NC(=O)c2ccnc(C(C)(C)C#N)c2)cc1-c1cn2ccnc2c(N2CCOCC2)n1` [Example 860, 2-(2-cyanopropan-2-yl)-N-(4-methyl-3-(8-morpholinoimidazo[1,2-a]pyrazin-6-yl)phenyl)isonicotinamide]: the IC50 worked out at 11.6 nM.

Consider `Cc1ncc(NC(=O)c2ccnc(C(F)F)c2)cc1-c1cnc(OC(F)F)c(N2CCOCC2)c1` [Example 982, N-(6′-(difluoromethoxy)-2-methyl-5′-morpholino-[3,3′-bipyridin]-5-yl)-2-(difluoromethyl)isonicotinamide], for which the IC50 was 2.44 nM.

For the molecule `CCn1cc(C(=O)Nc2cnc(C)c(-c3cc(NCCO)nc(N4CCOCC4)c3)c2)cc(C(F)(F)F)c1=O` [Example 1044, 1-ethyl-N-(2′-((2-hydroxyethyl)amino)-2-methyl-6′-morpholino-[3,4′-bipyridin]-5-yl)-6-oxo-5-(trifluoromethyl)-1,6-dihydropyridine-3-carboxamide], the IC50 was 30.6 nM.

In the case of `Cc1ccc(NC(=O)c2ccnc(C(C)(C)O)c2)cc1-c1cc(N2CCOCC2)nc(N2CC(O)C2)c1` [Example 1098, N-(3-(2-(3-hydroxyazetidin-1-yl)-6-morpholinopyridin-4-yl)-4-methylphenyl)-2-(2-hydroxypropan-2-yl)isonicotinamide], the IC50 came out at 5.75 nM.

On to `Cc1ncc(NC(=O)c2ccnc(C(C)(F)F)c2)cc1-c1cnc(OC(F)F)c(N2CCOCC2)c1` [Example 980, 2-(1,1-difluoroethyl)-N-(6′-(difluoromethoxy)-2-methyl-5′-morpholino-[3,3′-bipyridin]-5-yl)isonicotinamide], for which the IC50 amounted to 1.99 nM.

On to `Cc1ccc(NC(=O)c2cc(C(C)(C)O)ccn2)cc1-c1cc(N2CCOCC2)c(=O)n(C)c1` [Example 906, 4-(2-hydroxypropan-2-yl)-N-(4-methyl-3-(1-methyl-5-morpholino-6-oxo-1,6-dihydropyridin-3-yl)phenyl)picolinamide], for which the IC50 is 9.45 nM.

Take `Cc1ncc(NC(=O)c2ccnc(C(C)(F)F)c2)cc1-c1cc(C2COCCO2)nc(N2CCOCC2)c1` (stereo not drawn) [Example 1166, N-(2′-(1,4-dioxan-2-yl)-2-methyl-6′-morpholino-[3,4′-bipyridin]-5-yl)-2-(1,1-difluoroethyl)isonicotinamide]: the IC50 came to 3.28 nM.

Take `Cc1ccc(NC(=O)c2ccnc(C(F)(F)F)c2)cc1-c1cc(N2CCOCC2)nc(NCCO)c1F` [Example 1006, N-(3-(3-fluoro-2-((2-hydroxyethyl)amino)-6-morpholinopyridin-4-yl)-4-methylphenyl)-2-(trifluoromethyl)isonicotinamide]: the IC50 was determined as 3.97 nM.

The same assay, now with this note: read-out: b-Raf IC-50; Table 2; AlphaScreen, 3 hours reaction.
In the case of `Cc1ccc(NC(=O)c2ccnc(C(C)(C)C#N)c2)cc1-c1cc(N2CCOCC2)ncn1` [Example 2, 2-(2-cyanopropan-2-yl)-N-(4-methyl-3-(6-morpholinopyrimidin-4-yl)phenyl)isonicotinamide], the IC50 stood at 4.8 nM.

`Cc1ccc(NC(=O)c2ccnc(S(C)(=O)=O)c2)cc1-c1cnc(OC2CCOCC2)c(N2CCOCC2)c1` [Example 274, N-(4-methyl-3-(5-morpholino-6-((tetrahydro-2H-pyran-4-yl)oxy)pyridin-3-yl)phenyl)-2-(methylsulfonyl)isonicotinamide]: the IC50 is 0.8 nM.

Regarding `Cc1ncc(NC(=O)c2ccnc(C(C)(C)C#N)c2)cc1-c1cnc(N(C)C)c(N2CCOCC2)c1` [Example 265, 2-(2-cyanopropan-2-yl)-N-(6′-(dimethylamino)-2-methyl-5′-morpholino-[3,3′-bipyridin]-5-yl)isonicotinamide], the IC50 amounted to 4.5 nM.

As to `Cc1ccc(C(=O)Nc2cccc(C(F)F)c2)cc1-c1cc(N2CCOCC2)c(=O)n(C)c1` [Example 430, N-(3-(difluoromethyl)phenyl)-4-methyl-3-(1-methyl-5-morpholino-6-oxo-1,6-dihydropyridin-3-yl)benzamide], the IC50 was 1.6 nM.

For the molecule `CCCN(C(=O)c1cccc(C(F)(F)F)c1)c1cnc(C)c(-c2cnc(OC3CCOCC3)c(N3CCOCC3)c2)c1` [Example 330, N-(2-methyl-5′-morpholino-6′-((tetrahydro-2H-pyran-4-yl)oxy)-[3,3′-bipyridin]-5-yl)-N-propyl-3-(trifluoromethyl)benzamide], the IC50 amounted to 2400 nM.

Turning to `Cc1ccc(NC(=O)c2ccnc(C(C)(C)F)c2)cc1-c1cc(N2CCOCC2)c(=O)n(C)c1` [Example 355, 2-(2-fluoropropan-2-yl)-N-(4-methyl-3-(1-methyl-5-morpholino-6-oxo-1,6-dihydropyridin-3-yl)phenyl)isonicotinamide], the IC50 worked out at 2.5 nM.

Take `CCN1CCN(c2cc(C(=O)Nc3ccc(C)c(-c4cc(N5CCOCC5)nc(N5CCOCC5)n4)c3)cc(C(F)(F)F)c2)CC1` [Example 21, N-(3-(2,6-dimorpholinopyrimidin-4-yl)-4-methylphenyl)-3-(4-ethylpiperazin-1-yl)-5-(trifluoromethyl)benzamide]: the IC50 was determined as 4 nM.

Regarding `Cc1ncc(NC(=O)c2ccnc(C(C)(C)C#N)c2)cc1-c1cnc(OCC(F)F)c(N2CCOCC2)c1` [Example 228, 2-(2-cyanopropan-2-yl)-N-(6′-(2,2-difluoroethoxy)-2-methyl-5′-morpholino-[3,3′-bipyridin]-5-yl)isonicotinamide], the IC50 turned out to be 4.7 nM.

Take `Cn1cc(-c2cc(NC(=O)c3cccc(C(F)F)c3)ccc2C#N)cc(N2CCOCC2)c1=O` [Example 420, N-(4-cyano-3-(1-methyl-5-morpholino-6-oxo-1,6-dihydropyridin-3-yl)phenyl)-3-(difluoromethyl)benzamide]: the IC50 is 3600 nM.

As for `Cn1cc(-c2cc(NC(=O)c3ccnc(C(F)(F)F)c3)cnc2Cl)cc(N2CCOCC2)c1=O` [Example 404, N-(2-chloro-1′-methyl-5′-morpholino-6′-oxo-1′,6′-dihydro-[3,3′-bipyridin]-5-yl)-2-(trifluoromethyl)isonicotinamide], the IC50 was 4.3 nM.

In the case of `CCOc1ncc(-c2cc(NC(=O)c3cnnc(C(F)(F)F)c3)cnc2C)cc1N1CCOCC1` [Example 259, N-(6′-ethoxy-2-methyl-5′-morpholino-[3,3′-bipyridin]-5-yl)-6-(trifluoromethyl)pyridazine-4-carboxamide], the IC50 is 3.1 nM.

On to `Cc1ncc(NC(=O)c2cc(C(F)(F)F)ccn2)cc1-c1cnc(OCCO)c(N2CCOCC2)c1` [Example 301, N-(6′-(2-hydroxyethoxy)-2-methyl-5′-morpholino-[3,3′-bipyridin]-5-yl)-4-(trifluoromethyl)picolinamide], for which the IC50 is 3.2 nM.
